Measurements from publication PMC3537229 (European journal of pharmacology, 2012).
Where two headings read alike, the source gives them in different places.

Legend:
NET [1] = target: T1, NET (Rattus norvegicus, UniProt Q63380); conditions: percentage of maximal release response; ref Baumann et al. (2012b); cited from earlier work
SERT [2] = target: T2, SERT (Rattus norvegicus, UniProt P31652); conditions: percentage of maximal release response; ref Baumann et al. (2012b); cited from earlier work
T2 sequence (P31652 whole entry): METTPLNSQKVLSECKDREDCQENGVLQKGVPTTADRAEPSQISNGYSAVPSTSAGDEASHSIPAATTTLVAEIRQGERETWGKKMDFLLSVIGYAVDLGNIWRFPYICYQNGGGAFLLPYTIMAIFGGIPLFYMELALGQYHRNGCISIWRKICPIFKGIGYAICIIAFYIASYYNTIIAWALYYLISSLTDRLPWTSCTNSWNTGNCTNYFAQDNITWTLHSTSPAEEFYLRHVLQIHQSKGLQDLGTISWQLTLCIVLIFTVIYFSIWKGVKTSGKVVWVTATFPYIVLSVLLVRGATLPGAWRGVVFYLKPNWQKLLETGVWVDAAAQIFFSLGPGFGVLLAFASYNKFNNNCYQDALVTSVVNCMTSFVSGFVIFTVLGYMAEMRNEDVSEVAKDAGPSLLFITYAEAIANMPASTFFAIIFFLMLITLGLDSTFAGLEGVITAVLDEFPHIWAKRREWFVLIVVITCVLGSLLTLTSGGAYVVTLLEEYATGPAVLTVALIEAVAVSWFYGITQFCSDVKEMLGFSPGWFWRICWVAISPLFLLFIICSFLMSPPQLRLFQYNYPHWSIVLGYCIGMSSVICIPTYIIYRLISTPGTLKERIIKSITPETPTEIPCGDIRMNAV

mice [3] = conditions: mice, 1, 3 or 10 mg/kg, i.p.; ref Robinson et al. (2012); cited from earlier work
DAT [4] = target: T3, DAT (Rattus norvegicus, UniProt P23977); assay: Inhibition of [3H]dopamine uptake in rat brain synaptosomes; assay type: biochemical
T3 sequence (P23977 whole entry): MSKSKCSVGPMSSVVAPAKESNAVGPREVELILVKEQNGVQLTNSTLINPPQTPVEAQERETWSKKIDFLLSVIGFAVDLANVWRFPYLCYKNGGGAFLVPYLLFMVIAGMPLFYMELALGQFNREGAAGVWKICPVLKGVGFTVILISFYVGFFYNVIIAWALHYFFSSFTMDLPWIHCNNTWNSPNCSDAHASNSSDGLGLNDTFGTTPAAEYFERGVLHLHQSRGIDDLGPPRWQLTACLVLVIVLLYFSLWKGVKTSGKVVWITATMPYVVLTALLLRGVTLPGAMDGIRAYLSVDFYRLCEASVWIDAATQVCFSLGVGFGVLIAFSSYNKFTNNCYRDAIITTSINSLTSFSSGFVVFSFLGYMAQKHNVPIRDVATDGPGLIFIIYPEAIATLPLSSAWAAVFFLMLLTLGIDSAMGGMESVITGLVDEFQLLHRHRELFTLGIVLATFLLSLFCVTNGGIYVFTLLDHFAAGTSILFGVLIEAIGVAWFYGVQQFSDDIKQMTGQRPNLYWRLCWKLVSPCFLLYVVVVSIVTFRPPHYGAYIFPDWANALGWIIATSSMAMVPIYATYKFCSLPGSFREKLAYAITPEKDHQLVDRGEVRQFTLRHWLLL

NET [5] = target: T1, NET; assay: Inhibition of [3H]norepinephrine uptake in rat brain synaptosomes; assay type: biochemical
SERT [6] = target: T2, SERT; assay: Inhibition of [3H]serotonin uptake in rat brain synaptosomes; assay type: biochemical
DAT [7] = target: T3, DAT; assay: Release of [3H]MPP+ via DAT in rat brain synaptosomes; assay type: biochemical
NET [8] = target: T1, NET; assay: Release of [3H]MPP+ via NET in rat brain synaptosomes; assay type: biochemical
SERT [9] = target: T2, SERT; assay: Release of [3H]serotonin via SERT in rat brain synaptosomes; assay type: biochemical
rats [10] = conditions: cited from earlier work
DAT [11] = target: T3, DAT; conditions: percentage of maximal release response; ref Baumann et al. (2012b); cited from earlier work
[12] = system: extracellular levels of dopamine and serotonin in rat nucleus accumbens; conditions: i.v. injection, 0.3 or 1.0 mg/kg; ref Baumann et al., 2012a; cited from earlier work
mice [13] = conditions: ref Angoa-Perez et al., 2012, Lopez-Arnau et al., Marusich et al.; cited from earlier work
mice [14] = conditions: 30 mg/kg, i.p.; ref Lisek et al., 2012; cited from earlier work
rats [15] = conditions: 30 mg/kg, i.p.; ref Lisek et al., 2012; cited from earlier work
[16] = ref Kehr et al., 2011; cited from earlier work

T1 sequence (Q63380 1-617): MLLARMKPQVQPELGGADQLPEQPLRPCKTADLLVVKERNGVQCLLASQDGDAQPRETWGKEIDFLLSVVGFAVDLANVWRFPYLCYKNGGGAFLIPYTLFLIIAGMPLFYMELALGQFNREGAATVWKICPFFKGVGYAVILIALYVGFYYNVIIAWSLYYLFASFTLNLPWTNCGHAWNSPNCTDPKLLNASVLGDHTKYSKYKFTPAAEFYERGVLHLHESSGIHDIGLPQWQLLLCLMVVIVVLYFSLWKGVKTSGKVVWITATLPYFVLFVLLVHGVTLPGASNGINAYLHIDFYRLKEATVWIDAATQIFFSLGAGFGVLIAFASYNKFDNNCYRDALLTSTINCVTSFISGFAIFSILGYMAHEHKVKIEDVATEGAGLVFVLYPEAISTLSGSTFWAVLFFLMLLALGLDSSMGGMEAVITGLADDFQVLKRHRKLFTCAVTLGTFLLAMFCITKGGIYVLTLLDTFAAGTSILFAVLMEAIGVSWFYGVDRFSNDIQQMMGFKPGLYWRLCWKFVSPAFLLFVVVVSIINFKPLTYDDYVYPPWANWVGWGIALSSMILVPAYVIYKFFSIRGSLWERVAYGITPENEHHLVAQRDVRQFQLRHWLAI

**Q.** Which “NET release Emax %” value (NET [1]) does the source give for `CC(N)Cc1ccccc1` (centres unmarked) [Amphetamine] here?
**A.** The value was 92 ± 1%.

**Q.** What about the “SERT release Emax %” value (SERT [2]) of the same compound?
**A.** The value was 97 ± 2%.

**Q.** For `COC(=O)[C@H]1[C@@H](OC(=O)c2ccccc2)C[C@@H]2CC[C@H]1N2C` [Cocaine], which “Brain stimulation reward thresholds” value (mice [3]) is on record?
**A.** Its value is “this effect is mimicked by identical doses of cocaine”.

**Q.** With `CNC(C)Cc1ccc2c(c1)OCO2` (centres unmarked) [MDMA, 3,4-methylenedioxymethamphetamine] as the compound, how does the IC50 (DAT [4]) read?
**A.** Its IC50 is 1010 ± 39 nM.

**Q.** And the IC50 (NET [5])?
**A.** Its IC50 is 450 ± 30 nM.

**Q.** What about the IC50 (SERT [6]) of the same compound?
**A.** Its IC50 is 125 ± 11 nM.

**Q.** And the EC50 (DAT [7])?
**A.** The EC50 was 42 ± 2 nM.

**Q.** What about the Emax (DAT [7]; read-out: DAT release Emax %) of the same compound?
**A.** Its Emax is 100%.

**Q.** What about the EC50 (NET [8]) of the same compound?
**A.** Its EC50 is 53 ± 7 nM.

**Q.** What about the Emax (NET [8]; read-out: NET release Emax %) of the same compound?
**A.** Its Emax is 95%.

**Q.** And the EC50 (SERT [9])?
**A.** The EC50 was 39 ± 5 nM.

**Q.** And the Emax (SERT [9]; read-out: SERT release Emax %)?
**A.** The Emax was 103%.

**Q.** What does the source list for `CCCC(C(=O)c1ccc2c(c1)OCO2)N1CCCC1` (centres unmarked) [MDPV, 3,4-methylenedioxypyrovalerone]?
**A.** Uptake blocking potency at DAT compared to cocaine (fold more potent) (DAT [4]; more potent than cocaine): 50 fold; Uptake blocking potency at NET compared to cocaine (fold more potent) (NET [5]; more potent than cocaine): 10 fold; Uptake blocking potency at SERT compared to cocaine (fold less potent) (SERT [6]; less potent than cocaine): 10 fold; Self-administration by rats (rats [10]; i.v., 0.05, 0.1 or 0.2 mg/kg, ref Watterson et al., 2012): is readily self-administered by rats; Drug-taking behavior with extended access (rats [10]; rats allowed extended access to the drug, ref Watterson et al., 2012): escalation of drug-taking behavior is observed

**Q.** For `CNC(C)C(=O)c1ccc(C)cc1` (centres unmarked) [Mephedrone, 4-methylmethcathinone], which “DAT release Emax %” value (DAT [11]) is on record?
**A.** Its value is 102 ± 2%.

**Q.** What about the “NET release Emax %” value (NET [1]) of the same compound?
**A.** The value was 99 ± 4%.

**Q.** What about the “SERT release Emax %” value (SERT [2]) of the same compound?
**A.** Its value is 101 ± 1%.

**Q.** And the “Extracellular levels of dopamine and serotonin in rat nucleus accumbens” value [12]?
**A.** Its value is “increases extracellular levels of dopamine and serotonin”.

**Q.** What about the “Locomotor stimulant effects in mice” value (mice [13]) of the same compound?
**A.** The value was “produces locomotor stimulant effects”.

**Q.** And the “Place preference in mice” value (mice [14])?
**A.** Its value is “engenders a positive place preference”.

**Q.** What about the “Place preference in rats” value (rats [15]) of the same compound?
**A.** Its value is “engenders a positive place preference”.

**Q.** And the “Brain stimulation reward thresholds” value (mice [3])?
**A.** Its value is “lowers brain stimulation reward thresholds”.

**Q.** What about the Self-administration by rats (rats [10]; i.v., 0.24 mg/infusion, ref Hadlock et al. (2011)) of the same compound?
**A.** Its Self-administration by rats is “is self-administered by rats”.

**Q.** What about the “Rate of clearance compared to MDMA” value [16] of the same compound?
**A.** Its value is “much faster rate of clearance when compared to MDMA”.

**Q.** For `CNC(C)C(=O)c1ccc2c(c1)OCO2` (centres unmarked) [Methylone, 3,4-methylenedioxymethcathinone], which “SERT release Emax %” value (SERT [2]) is on record?
**A.** The value was 98 ± 2%.

**Q.** And the “Extracellular levels of dopamine and serotonin in rat nucleus accumbens” value [12]?
**A.** Its value is “increases extracellular levels of dopamine and serotonin”.
